# Assay results as given in US20250018014A1, “METHOD FOR TREATING AND/OR PREVENTING REGNASE-1-RELATED DISEASE” (OSAKA UNIVERSITY, priority 2018, published 2025).
# Residues, ends and D or L forms follow the SMILES beside them.
# Assays:
# [1] = biological target: T1, FL_Reg1 (full-length human Regnase-1) phosphorylation by TBK1 (Homo sapiens, UniProt Q5D1E8); assay: Regnase-1 phosphorylation inhibition by compounds (AlphaScreen), TBK1, full-length Regnase-1; type: biochemical; conditions: Table 13; phosphorylation by TBK1; read-out: Phosphorylation inhibition FL_Reg1, 50% inhibition concentration (TBK1)
# T1 construct: made in house; host or cells: Expi293 cells
# T1 sequence (Q5D1E8 1-599): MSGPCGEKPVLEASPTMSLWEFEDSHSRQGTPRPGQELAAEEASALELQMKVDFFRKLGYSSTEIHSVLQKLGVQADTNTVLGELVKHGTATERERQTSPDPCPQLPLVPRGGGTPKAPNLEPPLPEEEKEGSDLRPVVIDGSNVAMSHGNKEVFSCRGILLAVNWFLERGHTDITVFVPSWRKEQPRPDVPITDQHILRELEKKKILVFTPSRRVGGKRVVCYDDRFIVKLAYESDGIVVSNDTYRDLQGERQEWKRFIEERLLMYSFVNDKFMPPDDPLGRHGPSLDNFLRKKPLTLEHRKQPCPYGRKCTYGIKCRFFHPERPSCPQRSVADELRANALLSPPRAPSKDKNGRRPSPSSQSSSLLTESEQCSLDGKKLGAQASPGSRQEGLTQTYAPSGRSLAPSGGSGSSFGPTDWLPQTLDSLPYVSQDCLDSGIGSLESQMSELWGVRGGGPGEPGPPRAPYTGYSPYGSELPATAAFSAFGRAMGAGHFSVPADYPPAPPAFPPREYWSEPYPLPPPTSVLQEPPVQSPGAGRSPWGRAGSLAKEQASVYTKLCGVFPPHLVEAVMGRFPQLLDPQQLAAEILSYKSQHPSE
# Text: (§1) The full-length sequence of human Regnase-1 (UniProt ID: Q5D1E8) was used to prepare a construct having a FLAG tag on the N-terminal side and a recognition sequence for biotin ligase BirA on the C-terminal side (FL_Reg1) as a target protein. The above-mentioned Regnase-1 was expressed in mammalian Expi293 cells, purified with FLAG M2 agarose, and isolated by gel filtration chromatography. When biotinylation was required, methods from nonpatent documents (BMC biotechnology, 2008,8,41; and Protein Science, 1999,8,921-929) were used. […]
# (§2) Using Kinase assay buffer III (manufactured by SignalChem) supplemented with 2 mM DTT, 100 μM sodium vanadate, and 2 mM manganese chloride, kinase (IKKβ (manufactured by SignalChem) or TBK1 (manufactured by SignalChem)) and Regnase-1 were reacted in the presence of 10 μM ATP at room temperature for 2 hours to perform a phosphorylation reaction.
# (§3) Phosphorylated Regnase-1 was detected by the AlphaScreen system. After each of the above-mentioned phosphorylated Regnase-1 antibodies was added and reacted at room temperature for one hour, anti-FLAG AlphaLISA Acceptor Beads (manufactured by PerkinElmer) and Protein A AlphaScreen Donor Beads (manufactured by PerkinElmer) were added, and EnVision (manufactured by PerkinElmer) was used to measure the excited luminescence. As a result, phosphorylated Regnase-1 produced by the phosphorylation reaction by kinase was specifically detected, and signals were confirmed to be enhanced in a manner dependent on Regnase-1 and kinase concentrations (FIG. 24).
# (§4) After mixing 2 nM of the above-mentioned Regnase-1 and the compound, phosphorylated Regnase-1 produced by the phosphorylation reaction was detected by the AlphaScreen system. As the results, the inhibition rate was calculated from the signals obtained when adding the compound at each concentration, by defining the signal obtained with Regnase-1 alone to be 100% inhibition rate, and the signal obtained when the same amount of solvent (DMSO) is added in place of the compound as 0% inhibition rate. The 50% inhibition concentration (μM) was calculated from the obtained dose response curve (Table 11).
# [2] = biological target: T2, FL_Reg1 (full-length human Regnase-1) phosphorylation by IKKβ (Homo sapiens, UniProt Q5D1E8); assay: Regnase-1 phosphorylation inhibition by compounds (AlphaScreen), IKKβ, full-length Regnase-1; type: biochemical; conditions: Table 14; phosphorylation by IKKβ; read-out: Phosphorylation inhibition FL_Reg1, 50% inhibition concentration (IKKβ)
# T2 construct: made in house; host or cells: Expi293 cells
# T2 sequence (Q5D1E8 1-599): T1 sequence (Q5D1E8 1-599)
# Text: as §1, §2, §3, §4
# [3] = biological target: T3, binding between TBK1 and full-length Regnase-1 (FL_Reg1) (Homo sapiens, UniProt Q5D1E8); assay: Inhibition of kinase-Regnase-1 binding by the compounds (AlphaScreen), TBK1; conditions: Table 13; binding between TBK1 and Regnase-1; read-out: Binding inhibition FL_Reg1, 50% inhibition concentration (TBK1)
# T3 construct: made in house; host or cells: Expi293 cells
# T3 sequence (Q5D1E8 1-599): T1 sequence (Q5D1E8 1-599)
# Description: (§5) As a target protein, a construct having a FLAG tag on the N-terminal side and a recognition sequence for biotin ligase BirA on the C-terminal side of the full-length sequence of human Regnase-1 (UniProt ID: Q5D1E8) was prepared (FL_Reg1). The above-mentioned Regnase-1 was expressed in mammalian Expi293 cells, purified with FLAG M2 agarose, and isolated by gel filtration chromatography. When biotinylation was required, methods from nonpatent documents (BMC biotechnology, 2008,8,41; and Protein Science, 1999,8,921-929) were used.
# (§6) After mixing 2.5 nM of the above-mentioned Regnase-1 and the compound, 2.5 nM of IKKβ or TBK1 was added and reacted at room temperature for two hours. Then, Anti FLAG AlphaLISA Acceptor Beads (manufactured by PerkinElmer) and Glutathione-coated AlphaScreen Donor Beads (manufactured by PerkinElmer) were added, and excited luminescence was measured using En Vision (manufactured by PerkinElmer). As the results, the inhibition rate from the signals obtained when adding the compound at each concentration were calculated, by defining the signal obtained with Regnase-1 alone to be 100% inhibition rate, and the signal obtained when the same amount of solvent (DMSO) is added in place of the compound as 0% inhibition rate. The 50% inhibition concentration (μM) was calculated from the obtained dose response curve (Table 12).
# [4] = biological target: T4, binding between IKKβ and full-length Regnase-1 (FL_Reg1) (Homo sapiens, UniProt Q5D1E8); assay: Inhibition of kinase-Regnase-1 binding by the compounds (AlphaScreen), IKKβ; conditions: Table 14; binding between IKKβ and Regnase-1; read-out: Binding inhibition FL_Reg1, 50% inhibition concentration (IKKβ)
# T4 construct: made in house; host or cells: Expi293 cells
# T4 sequence (Q5D1E8 1-599): T1 sequence (Q5D1E8 1-599)
# Description: as §5, §6
# FL_Reg1 = biological target: T5, FL_Reg1 (Homo sapiens, UniProt Q5D1E8); assay: Binding of Regnase-1 and peptide compounds (affinity mass analysis, SEC then LC/MS); conditions: 1 μM FL_Reg1, final compound concentration 1 μM, 23° C. for one hour
# T5 construct: made in house; host or cells: Expi293 cells
# T5 sequence (Q5D1E8 1-599): T1 sequence (Q5D1E8 1-599)
# Description: To a 96 PP plate (Greiner bio-one, 651201) coated with lipidure (Lipidure-CM5206) (NOF CORPORATION, 71S42000001), 2 μL of Tris-Buffer (25 mM Tris-NaOH pH 8.3, 300 mM NaCl, 1 mM DTT, 1 mM EDTA, 1% DMSO) was dispensed, and then 1 mM DMSO sample was added at 20 nL each with a LABCYTE ECHO (registered trademark) acoustic dispensing system. Furthermore, 18 μL of protein prepared at 1 μM FL_Reg1 in advance using Tris-Buffer was added (final compound concentration: 1 μM), and the mixture was incubated in the dark at 23° C. for one hour. Then, to a 96-well, 400 μL, Hydrophilic PVDF 0.45 μm, Long drip (Harvard, 74-5556), 100 μL of P-2, Fine (Bio-Rad, 1504114) which had been swollen in advance was added, and conditioning was performed by centrifuging several times at 2000× G for two minutes using the buffer. Next, 20 μL of the sample after incubation was added to the conditioned 96-well, 400 μL, Hydrophilic PVDF 0.45 μm, Long drip, and SEC treatment was performed by centrifugation at 2000×G for two minutes. To the liquid from SEC, 32 μL of acetonitrile (LC/MS grade, FUJIFILM Wako Pure Chemical Industries, Ltd.) supplemented with 0.1% formic acid (LC/MS grade, 067-04531, FUJIFILM Wako Pure Chemical Industries, Ltd.) was added, and this was centrifuged at 1800×G for five minutes, and the supernatant was used as an analysis sample for LC/MS measurement. Binding to Regnase-1 was detected for all of the peptide compounds, PP1 to PP25.
# [5] = biological target: T6, Reg1_301-599 (amino acids 301-599 of human Regnase-1) phosphorylation by IKKβ (Homo sapiens, UniProt Q5D1E8); assay: Regnase-1 phosphorylation inhibition by compounds (AlphaScreen), IKKβ, C-terminal Regnase-1; type: biochemical; conditions: Table 14, read-out: Phosphorylation inhibition Reg1_301-599, 50% inhibition concentration (IKKβ)
# T6 construct: made in house; host or cells: Expi293 cells
# T6 sequence (Q5D1E8 301-599): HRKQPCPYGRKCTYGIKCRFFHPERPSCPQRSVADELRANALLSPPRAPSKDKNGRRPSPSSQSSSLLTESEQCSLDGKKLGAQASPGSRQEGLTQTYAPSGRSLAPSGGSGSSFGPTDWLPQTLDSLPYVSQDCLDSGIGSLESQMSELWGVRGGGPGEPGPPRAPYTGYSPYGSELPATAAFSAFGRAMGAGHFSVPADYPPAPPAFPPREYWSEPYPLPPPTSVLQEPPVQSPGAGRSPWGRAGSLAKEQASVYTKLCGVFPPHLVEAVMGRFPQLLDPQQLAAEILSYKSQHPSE
# Text: The full-length sequence of human Regnase-1 (UniProt ID: Q5D1E8) was used to prepare a construct having a FLAG tag on the N-terminal side and a recognition sequence for biotin ligase BirA on the C-terminal side (FL_Reg1) as a target protein. The above-mentioned Regnase-1 was expressed in mammalian Expi293 cells, purified with FLAG M2 agarose, and isolated by gel filtration chromatography. When biotinylation was required, methods from nonpatent documents (BMC biotechnology, 2008,8,41; and Protein Science, 1999,8,921-929) were used.
# Among the full-length human Regnase-1 sequence, the 1st to 546th amino acid sequence was prepared and made into a construct having a FLAG tag on the N-terminal side and a biotin ligase BirA recognition sequence on the C-terminal side (herein, a Regnase-1 lacking the C-terminal domain of Regnase-1 (amino acids 547 to 599 in the case of SEQ ID NO: 2) is referred to as “ΔCTD_Reg1”. “ΔCTD_Reg1” is different from “Regnase-1ΔCTD”, which is a C-terminal domain deletion variant resulting from a frameshift mutation caused by a 1 bp deletion at codon 517, as prepared in Example 13). In addition, the sequence from amino acids 301 to 599 of the full-length human Regnase-1 sequence was designated as C-terminal Regnase-1, and a construct having a FLAG tag on the N-terminal side and a recognition sequence for biotin ligase BirA on the C-terminal side was prepared (Reg1_301-599). The above-mentioned Regnase-1 was expressed in mammalian Expi293 cells, purified with FLAG M2 agarose, and isolated by gel filtration chromatography. When biotinylation was required, methods of nonpatent documents (BMC biotechnology, 2008,8,41; and Protein Science, 1999,8,921-929) were used.
# as §2, §3, §4
IC50 [1] [µM],IC50 [2] [µM],IC50 [3] [µM],IC50 [4] [µM],AS-MS ratio(%) (FL_Reg1),IC50 [5] [µM],Structure (SMILES)
8.4,3.6,13.8,16.9,0.1,,"CC(C)[C@@H]1NC(=O)[C@H](Cc2c[nH]c3ccccc23)NC(=O)[C@H](CCCCN)NC(=O)[C@H](Cc2c[nH]c3ccccc23)NC(=O)[C@H](CCC(N)=O)NC(=O)[C@H](CCCNC(=N)N)NC(=O)[C@H](Cc2ccccc2)NC(=O)[C@H](CCCNC(=N)N)NC(=O)[C@H](C)N(C)C(=O)C[C@@H](C(=O)N2CCCC2)NC(=O)[C@@H]2CCCN2C(=O)[C@H](Cc2ccc(O)cc2)NC1=O [PP13] (HELM PEPTIDE1{[meA].R.F.R.Q.W.K.W.V.Y.P.D.[C1CCN([*:1])C1]}$PEPTIDE1,PEPTIDE1,1:R1-12:R3$$$V2.0)"
2.9,1.4,6.5,7.4,,5.7,"CC[C@H](C)[C@@H]1NC(=O)[C@H](CC(N)=O)NC(=O)[C@H](Cc2ccc(O)cc2)NC(=O)[C@H](Cc2c[nH]c3ccccc23)NC(=O)[C@H](CO)NC(=O)[C@H](CC(N)=O)NC(=O)[C@H](Cc2c[nH]c3ccccc23)NC(=O)[C@H](Cc2ccc(O)cc2)NC(=O)[C@H](CCCCN)NC(=O)[C@H](CO)NC(=O)[C@@H](C)N(C)C(=O)C[C@@H](C(=O)N2CCCC2)NC(=O)[C@H](Cc2c[nH]c3ccccc23)NC1=O [PP8] (HELM PEPTIDE1{[C[C@H](C(=O)[*:2])N(C)[*:1]].S.K.Y.W.N.S.W.Y.N.I.W.D.[C1CCN([*:1])C1]}$PEPTIDE1,PEPTIDE1,1:R1-13:R3$$$V2.0)"
